Read-outs that look alike come from different tables or passages of the source.
Experiments:
influenza virus = assay type: cell-based; details: 1.23 mg/ml

With `CCOC(=O)C1=C[C@@H](OC(CC)CC)[C@H](NC(C)=O)[C@@H](N)C1` [Tamiflu, oseltamivir] the antiviral activity (influenza virus) was “no antiviral activity”, the cytotoxicity (MDCK cells) was “comparatively high cytotoxicity” and the “Cell viability (%)” value (MDCK cells; 0.14 mg/ml) was 64.02%. For the same molecule, the “Cell viability (%)” value (MDCK cells; 0.41 mg/ml) was 54.94%, the “Cell viability (%)” value (MDCK cells; 1.23 mg/ml) was 20.83% and the cytotoxicity (MDCK cells; 1.23 mg/ml) was “showed high cytotoxicity”.
